Values quoted from earlier work as cited in patent publication US7807833B2, “Method for total synthesis of ecteinascidins and intermediate compounds thereof” (Japan Science and Technology Agency, priority 2002, dated 2010).

System: cancer cells

Question: Which results are given for `COc1cc2c(cc1O)CCN[C@]21CS[C@@H]2c3c(OC(C)=O)c(C)c4c(c3[C@H](COC1=O)N1[C@@H]2[C@H]2c3c(cc(C)c(OC)c3O)C[C@@H]([C@@H]1O)N2C)OCO4` [Et 743, ecteinascidin 743]?
Answer: IC50 (background statement, cell lines not named, read-out: IC50, depressing the proliferation of cancer cells): 100 to 1000 pM; times more potent than Toxol, Camptotesin, Adriamycin or Mitomycin in depressing the proliferation of cancer cells (relative to currently used carcinostatic agents): 10 to 100 times

Question: With `COc1c(C)cc2c(c1O)[C@@H]1[C@@H]3Cc4c(OC(C)=O)c(C)c5c(c4[C@H](CN4C(=O)c6ccccc6C4=O)N3[C@@H](C#N)[C@H](C2)N1C)OCO5` [phthalascidin] as the molecule, how does the “antineoplastic activity compared with ET 743” value (qualitative background statement) read?
Answer: same activity to ET 743
